# Results taken from patent publication US3959283A, “Amino-derivatives of 1,4-benzodioxan” (Laboratoire L. Lafon, priority 1974, dated 1976).
# Structures can show the parent of a compound that is named as a salt.
# How the values were obtained:
# [1] = Acute intravenous toxicity in mice, products of Examples 10 to 13 (LD50); conditions: mouse, in vivo, i.v., group of male and female mice
# Source text: (a) determined on a group of male and female mice,
# (b) determined on a group consisting solely of female mice.
# [2] = tested on: adrenergic receptors; test: Inhibition/reversal of tension effects of adrenalin, intravenous (products of Examples 11 to 13); format: in vivo; conditions: i.v.
# Method: the doses of CRL 40,150 from 0.5 to 4 mg/kg being administered successively.
# [3] = tested on: dogs; test: Hypotensive effect in dogs anaesthetised with Nembutal; format: in vivo
# Source text: This hypotension manifests itself especially in a decrease in the differential pressure, the lowering of the diastolic pressure being greater than that of the systolic pressure.
# [4] = tested on: dogs; test: Intraduodenal administration to dogs anaesthetised with Nembutal (product of Example 11), Experiments A to D; format: in vivo
# Method: Complementary experiments carried out on anaesthetised dogs have been given below for the product of Example 11 administered intraduodenally (ID).
# (§1) The product was investigated by intraduodenal administration to dogs anaesthetised with Nembutal, in four experiments, A B C and D.
# The arterial pressure is not altered. The pulse rate increases by at most 20% after 15 minutes and then decreases slowly (+ 14% after 30 minutes).
# After 1 hour, the femoral flow rate has still been increased by 100% (from 36 to 72 ml/minute).
# The α-receptors of the animal are already blocked. […] The vertebral flow rate is 20 ml/minute.
# 15 hr. […] 15 hr. […] 16 hr. […] 16 hr. 23 min. Propanolol: 0.3 mg/kg administered intravenously. […] The arterial pressure increases by approximately 10%. […] The pulse rate increases by 20 to 33%. […] The femoral flow rate is increased by only 25%.
# [5] = tested on: adrenergic receptors; test: Tension effects of adrenalin after intraduodenal product of Example 11; format: in vivo, dogs; conditions: Experiment A
# Source text: as §1
# [6] = tested on: adrenalin; test: Effect on the amines and reflexes: adrenalin; conditions: in vivo
# Source text: (§2) In Table III below, the effects of the products on the amines and the reflexes have been summarised.
# [7] = tested on: acetylcholine; test: Effect on the amines and reflexes: acetylcholine; conditions: in vivo
# Source text: as §2
# [8] = tested on: peripheral vagus; test: Effect on the amines and reflexes: stimulation of the peripheral vagus; conditions: in vivo
# Source text: as §2
# [9] = tested on: central vagus; test: Effect on the amines and reflexes: stimulation of the central vagus; conditions: in vivo
# Source text: as §2
# [10] = tested on: reflex relating to occlusion of the carotids; test: Effect on the amines and reflexes: occlusion of the carotids; conditions: in vivo
# Source text: as §2
# [11] = Experiment A, 15 and 30 mg/kg ID
# [12] = Experiment B, second administration 30 mg/kg ID, after 1 hour
# [13] = Experiment B, second administration 30 mg/kg ID, after 2 hours
# [14] = Experiment B, third administration 30 mg/kg ID
# [15] = Experiment D, second 15 mg/kg ID
smiles,measurement,setting,value
"COc1cc(OC)cc(OCCN2CCN(CC3COc4ccccc4O3)CC2)c1 (centres unmarked) [Example 11, 1-[2-(1,4-Benzodioxanyl)-methyl]-4-[2-(3,5-dimethoxyphenoxy)-ethyl]-piperazine dihydrochloride]",LD50,[1],60 mg/kg
same,dose from which tension effects of adrenalin are inhibited and then reversed,[2],≥ 0.37 mg/kg
same,hypotension,[3],40%
same,arterial pressure,[4]; [11],not altered
same,effect on the femoral flow rate,[4]; [11],no effect
same,effect on the vertebral flow rate,[4]; [11],no effect
same,increase in pulse rate,"[4]; Experiment A, after 15 minutes",at most 20%
same,increase in pulse rate,"[4]; Experiment A, after 30 minutes",14%
same,increase in femoral flow rate,"[4]; Experiment B, 15 mg/kg ID, 5 minutes",134%
same,increase in femoral flow rate,"[4]; Experiment B, 15 mg/kg ID, 15 minutes",194%
same,increase in femoral flow rate,"[4]; Experiment B, 15 mg/kg ID, 1 hour",100%
same,femoral flow rate,"[4]; Experiment B, 15 mg/kg ID, 1 hour, from 36",72 mL/min
same,increase in differential arterial pressure,"[4]; Experiment B, ID",30%
same,increase in the pulse rate,"[4]; Experiment B, ID",≤ 30%
same,decrease in average arterial pressure,"[4]; Experiment B, ID, at most",≤ 18%
same,average arterial pressure,"[4]; Experiment B, ID, lowest, from 165",135 mm Hg
same,femoral flow rate,[4]; [12],104 mL/min
same,increase in femoral flow rate,[4]; [12],184%
same,femoral flow rate,[4]; [13],92 mL/min
same,increase in femoral flow rate,[4]; [13],156%
same,change in femoral flow rate,"[4]; Experiment B, second administration 30 mg/kg ID, first 45 minutes",does not change the flow rate further
same,femoral flow rate,[4]; [14],108 mL/min
same,increase in femoral flow rate,[4]; [14],200%
same,effect on the femoral flow rate,"[4]; Experiment C, 15 mg/kg ID",zero
same,increase in vertebral flow rate,"[4]; Experiment C, 15 mg/kg ID, after 60 minutes",35%
same,vertebral flow rate,"[4]; Experiment C, 15 mg/kg ID, after 60 minutes, from 20",27 mL/min
same,average pressure,"[4]; Experiment D, 15 mg/kg ID",remaining constant
same,differential pressure,"[4]; Experiment D, 15 mg/kg ID",large increase in the differential pressure
same,increase in arterial pressure,"[4]; Experiment D, 15 mg/kg ID",approximately 10%
same,increase in femoral flow rate,"[4]; Experiment D, 15 mg/kg ID, 10 minutes",170%
same,femoral flow rate,"[4]; Experiment D, 15 mg/kg ID, 10 minutes, from 48",130 mL/min
same,increase in femoral flow rate,"[4]; Experiment D, 15 mg/kg ID, 30 minutes",100%
same,increase in femoral flow rate,"[4]; Experiment D, 15 mg/kg ID, 75 minutes",50%
same,increase in vertebral flow rate,"[4]; Experiment D, 15 mg/kg ID, first administration, at most",≤ 16%
same,increase in femoral flow rate,[4]; [15],25%
same,vertebral flow rate,[4]; [15],70 mL/min
same,increase in vertebral flow rate,"[4]; Experiment D, second 15 mg/kg ID, after 15 minutes",94%
same,tension effects of adrenalin,[5]; 5 minutes after the first dose (15 mg/kg ID),reversed
same,passage through the intestinal barrier,[5]; ID,passed through the intestinal barrier
same,Effect on the amines and reflexes: adrenalin,[6],reversal
same,Effect on the amines and reflexes: acetylcholine,[7],no change
same,Effect on the amines and reflexes: stimulation of the peripheral vagus,[8],not changed
same,Effect on the amines and reflexes: stimulation of the central vagus,[9],not changed
same,Effect on the amines and reflexes: reflex relating to occlusion of the carotids,[10],reduced
